According to PMC13242721 (Angewandte Chemie (International ed. in English), 2024):
Starred links: 1 amine or outer side, 2 acyl side, 3 side chain; linkers in the order of their positions; H or OH if unused. Non-standard residues stand in square brackets, D forms with d. Residues, ends and D or L forms follow the SMILES beside them. *: point of attachment. Palmitoyl = CCCCCCCCCCCCCCCC(=O)*; AzaAla = CN(N[*:1])C(=O)[*:2]

Key:
[1] = target: T1, GLP-1R (Homo sapiens, UniProt P43220)
[2] = target: T1, GLP-1R; assay: cAMP luciferase reporter assay, GLP-1R agonism; format: cell-based
[3] = target: T2, GIPR (Homo sapiens, UniProt P48546); assay: cAMP luciferase reporter assay, GIPR agonism; format: cell-based
T2 sequence (P48546 22-466): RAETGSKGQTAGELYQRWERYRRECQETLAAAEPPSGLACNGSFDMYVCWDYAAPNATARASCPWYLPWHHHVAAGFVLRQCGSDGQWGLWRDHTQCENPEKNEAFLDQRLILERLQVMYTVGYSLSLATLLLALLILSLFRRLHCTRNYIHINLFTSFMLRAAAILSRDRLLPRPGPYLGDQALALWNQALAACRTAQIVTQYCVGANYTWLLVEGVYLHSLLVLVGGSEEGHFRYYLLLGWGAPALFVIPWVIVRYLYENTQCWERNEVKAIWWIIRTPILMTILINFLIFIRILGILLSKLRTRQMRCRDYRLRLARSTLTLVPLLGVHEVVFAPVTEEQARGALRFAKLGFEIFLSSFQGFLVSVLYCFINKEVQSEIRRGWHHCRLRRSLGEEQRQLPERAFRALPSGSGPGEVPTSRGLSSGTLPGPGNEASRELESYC

[4] = target: T1, GLP-1R; settings: alanine scanning of GLP-1; cited from earlier work

T1 sequence (P43220 24-463): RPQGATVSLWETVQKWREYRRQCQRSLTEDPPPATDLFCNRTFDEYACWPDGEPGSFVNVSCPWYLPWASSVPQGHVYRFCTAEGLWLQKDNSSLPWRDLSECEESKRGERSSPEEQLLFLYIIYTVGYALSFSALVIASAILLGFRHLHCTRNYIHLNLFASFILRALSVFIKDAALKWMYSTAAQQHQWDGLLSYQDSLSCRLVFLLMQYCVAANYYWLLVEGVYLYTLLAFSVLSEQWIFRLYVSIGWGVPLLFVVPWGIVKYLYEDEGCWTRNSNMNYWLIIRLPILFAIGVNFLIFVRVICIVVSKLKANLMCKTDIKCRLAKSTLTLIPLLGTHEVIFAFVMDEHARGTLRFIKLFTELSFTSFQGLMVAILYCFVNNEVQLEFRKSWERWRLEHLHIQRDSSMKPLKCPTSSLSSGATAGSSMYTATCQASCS

| Compound | Fold-Shift (↓) = (EC50 with DPP4)/(EC50 without DPP4) [1] | efficacy compared to native ligand (in words) [2] | EC50 [3] | efficacy compared to native ligand (in words) ([3]; GIPR, cAMP luciferase reporter assay) | adenylyl cyclase activity (in words) [4] |
| --- | --- | --- | --- | --- | --- |
| CCCCCCCCCCCCCCCC(=O)NCCCC[C@H](NC(=O)[C@H](CO)NC(=O)[C@@H]1CCCN1C(=O)[C@@H]1CCCN1C(=O)[C@@H]1CCCN1C(=O)[C@H](C)NC(=O)CNC(=O)[C@H](CO)NC(=O)[C@H](CO)NC(=O)[C@@H]1CCCN1C(=O)CNC(=O)CNC(=O)[C@H](C)NC(=O)[C@H](CC(C)C)NC(=O)[C@H](CC(C)C)NC(=O)[C@H](Cc1c[nH]c2ccccc12)NC(=O)[C@H](CC(N)=O)NC(=O)[C@@H](NC(=O)[C@H](Cc1ccccc1)NC(=O)[C@H](CCC(=O)O)NC(=O)[C@H](C)NC(=O)[C@H](C)NC(=O)[C@H](C)NC(=O)[C@H](CCC(N)=O)NC(=O)[C@H](CCCCN)NC(=O)[C@H](CC(=O)O)NC(=O)[C@H](CC(C)C)NC(=O)[C@H](Cc1ccc(O)cc1)NC(=O)[C@@H](NC(=O)[C@H](CO)NC(=O)[C@H](Cc1ccc(O)cc1)NC(=O)[C@H](CC(=O)O)NC(=O)[C@H](CO)NC(=O)[C@@H](NC(=O)[C@H](Cc1ccccc1)NC(=O)[C@@H](NC(=O)CNC(=O)[C@H](CCC(=O)O)NC(=O)N(C)NC(=O)[C@@H](N)Cc1ccc(O)cc1)[C@@H](C)O)[C@@H](C)O)[C@@H](C)CC)C(C)C)C(N)=O [DA X2AzaA, X20A] (H-Y[AzaAla]EGTFTSDYSIYLDKQAAAEFVNWLLAGGPSSGAPPPSK(Palmitoyl)-NH2; N-terminus and C-terminus assumed) | 1.0 | equiefficacious | 2.51 pM | equiefficacious |  |
| Glu9Ala variant: literature alanine-scan variant of GLP-1 (HDEFERHAAGTFTSDVSSYLEGQAAKEFIAWLVKGRG; Glucagon-like peptide 1; UniProt P01275 92-128, looked up, variant E9A) |  |  |  |  | equivalent adenylyl cyclase activity |
